Species on record: Rattus norvegicus
Experiment: Open TG-GATES - Regimen: Daily Repeat
Assay type: toxicity, organism-based, Sprague-Dawley
Parameters: regimen Daily Repeat, gender Male, age 6 weeks
Conditions: in vivo, po, 300 mg/kg, route gavage, dose level High; for APTT / Bas / Eos / Fbg / Hb / Ht / Lym / MCH / MCHC / MCV / Mono / Neu / PT / Plat / RBC / Ret / WBC: tissue Blood; for KIDNEY_L / KIDNEY_R / KIDNEY_TOTAL: tissue Kidney; for LIVER: tissue Liver; for A/G / ALP / ALT / AST / BUN / CRE / Ca / Cl / DBIL / GLC / IP / K / LDH / Na / PL / RALB / TBIL / TC / TG / TP / gamma-GTP: tissue Plasma

`O=C(O)COc1nn(Cc2ccccc2)c2ccccc12` [BENDAZAC] showed a TERMINAL_BW (72 h, time 3 day) of 223.3 g, an APTT (72 h, time 3 day) of 19 s and a Bas (72 h, time 3 day) of 0%. The Eos (72 h, time 3 day) was 0.8%, the Fbg (72 h, time 3 day) was 218 mg/dL and the Hb (72 h, time 3 day) was 14.2 g/dL. For the same compound, the Ht (72 h, time 3 day) was 42%, the Lym (72 h, time 3 day) was 75.2% and the MCH (72 h, time 3 day) was 21.6 pg. For the same compound, the MCHC (72 h, time 3 day) was 33.7%, the MCV (72 h, time 3 day) was 64.2 fL and the Mono (72 h, time 3 day) was 9.2%. The Neu (72 h, time 3 day) was 14.4%, the PT (72 h, time 3 day) was 12.3 s and the Plat (72 h, time 3 day) was 133.3 x10_4/uL. The RBC (72 h, time 3 day) was 655.2 x10_4/ul, the Ret (72 h, time 3 day) was 6.2% and the WBC (72 h, time 3 day) was 109.6 x10_2/uL. It also gave a KIDNEY_L (72 h, time 3 day) of 1 g, a KIDNEY_R (72 h, time 3 day) of 1.1 g and a KIDNEY_TOTAL (72 h, time 3 day) of 2.1 g. It also gave an LIVER (72 h, time 3 day) of 13.4 g, an A/G (72 h, time 3 day) of 2.3 and an ALP (72 h, time 3 day) of 1088.6 IU/L. It also gave an ALT (72 h, time 3 day) of 44.4 IU/L, an AST (72 h, time 3 day) of 75.8 IU/L and a BUN (72 h, time 3 day) of 17.4 mg/dL. For the same compound, the CRE (72 h, time 3 day) was 0.6 mg/dL, the Ca (72 h, time 3 day) was 10.8 mg/dL and the Cl (72 h, time 3 day) was 103.6 meq/L. The DBIL (72 h, time 3 day) was 0.076 mg/dL, the GLC (72 h, time 3 day) was 192.6 mg/dL and the IP (72 h, time 3 day) was 5.8 mg/dL. It also gave a K (72 h, time 3 day) of 4.4 meq/L, an LDH (72 h, time 3 day) of 141.8 IU/L and a Na (72 h, time 3 day) of 140.4 meq/L. It also gave a PL (72 h, time 3 day) of 131 mg/dL, an RALB (72 h, time 3 day) of 3.8 g/dL and a TBIL (72 h, time 3 day) of 0.8 mg/dL. The TC (72 h, time 3 day) was 66.2 mg/dL, the TG (72 h, time 3 day) was 68.8 mg/dL and the TP (72 h, time 3 day) was 5.5 g/dL. For the same compound, the gamma-GTP (72 h, time 3 day) was 1.2 IU/L, the TERMINAL_BW ([…], time 7 day) was 261 g and the TERMINAL_BW ([…], time 14 day) was 307.2 g. The TERMINAL_BW ([…], time 28 day) was 410 g, the APTT ([…], time 7 day) was 20.2 s and the Bas ([…], time 7 day) was 0%. For the same compound, the Eos ([…], time 7 day) was 0.8%, the Fbg ([…], time 7 day) was 207.6 mg/dL and the Hb ([…], time 7 day) was 13.8 g/dL. It also gave a Ht ([…], time 7 day) of 40.6%, a Lym ([…], time 7 day) of 83% and an MCH ([…], time 7 day) of 21.5 pg. The MCHC ([…], time 7 day) was 34%, the MCV ([…], time 7 day) was 63.3 fL and the Mono ([…], time 7 day) was 5.2%. For the same compound, the Neu ([…], time 7 day) was 11.4%, the PT ([…], time 7 day) was 12.6 s and the Plat ([…], time 7 day) was 132.2 x10_4/uL. It also gave an RBC ([…], time 7 day) of 641.6 x10_4/ul, a Ret ([…], time 7 day) of 6.1% and a WBC ([…], time 7 day) of 123 x10_2/uL. The APTT ([…], time 14 day) was 18.9 s, the Bas ([…], time 14 day) was 0% and the Eos ([…], time 14 day) was 0.6%. It also gave a Fbg ([…], time 14 day) of 213.6 mg/dL, a Hb ([…], time 14 day) of 14.7 g/dL and a Ht ([…], time 14 day) of 43%. The Lym ([…], time 14 day) was 83%, the MCH ([…], time 14 day) was 20.9 pg and the MCHC ([…], time 14 day) was 34%. It also gave an MCV ([…], time 14 day) of 61.3 fL, a Mono ([…], time 14 day) of 5.6% and a Neu ([…], time 14 day) of 10.8%. For the same compound, the PT ([…], time 14 day) was 11.7 s, the Plat ([…], time 14 day) was 128.4 x10_4/uL and the RBC ([…], time 14 day) was 702.2 x10_4/ul. For the same compound, the Ret ([…], time 14 day) was 3%, the WBC ([…], time 14 day) was 117.7 x10_2/uL and the APTT ([…], time 28 day) was 21 s. For the same compound, the Bas ([…], time 28 day) was 0%, the Eos ([…], time 28 day) was 1% and the Fbg ([…], time 28 day) was 216.5 mg/dL. For the same compound, the Hb ([…], time 28 day) was 14.8 g/dL, the Ht ([…], time 28 day) was 43.9% and the Lym ([…], time 28 day) was 83.2%. The MCH ([…], time 28 day) was 19.5 pg, the MCHC ([…], time 28 day) was 33.8% and the MCV ([…], time 28 day) was 57.8 fL. It also gave a Mono ([…], time 28 day) of 5.5%, a Neu ([…], time 28 day) of 10.8% and a PT ([…], time 28 day) of 13.5 s. The Plat ([…], time 28 day) was 114.5 x10_4/uL, the RBC ([…], time 28 day) was 760.5 x10_4/ul and the Ret ([…], time 28 day) was 3.2%. For the same compound, the WBC ([…], time 28 day) was 142.5 x10_2/uL, the KIDNEY_L ([…], time 7 day) was 1.2 g and the KIDNEY_R ([…], time 7 day) was 1.2 g. For the same compound, the KIDNEY_TOTAL ([…], time 7 day) was 2.3 g, the KIDNEY_L ([…], time 14 day) was 1.2 g and the KIDNEY_R ([…], time 14 day) was 1.2 g. For the same compound, the KIDNEY_TOTAL ([…], time 14 day) was 2.5 g, the KIDNEY_L ([…], time 28 day) was 1.6 g and the KIDNEY_R ([…], time 28 day) was 1.6 g. For the same compound, the KIDNEY_TOTAL ([…], time 28 day) was 3.2 g, the LIVER ([…], time 7 day) was 14.9 g and the LIVER ([…], time 14 day) was 17 g. The LIVER ([…], time 28 day) was 21.1 g, the A/G ([…], time 7 day) was 2 and the ALP ([…], time 7 day) was 1331.4 IU/L. The ALT ([…], time 7 day) was 37 IU/L, the AST ([…], time 7 day) was 67.6 IU/L and the BUN ([…], time 7 day) was 19.6 mg/dL. It also gave a CRE ([…], time 7 day) of 0.5 mg/dL, a Ca ([…], time 7 day) of 11.1 mg/dL and a Cl ([…], time 7 day) of 105 meq/L. For the same compound, the DBIL ([…], time 7 day) was 0.022 mg/dL, the GLC ([…], time 7 day) was 196.8 mg/dL and the IP ([…], time 7 day) was 5.8 mg/dL. The K ([…], time 7 day) was 4.4 meq/L, the LDH ([…], time 7 day) was 115.8 IU/L and the Na ([…], time 7 day) was 141 meq/L. For the same compound, the PL ([…], time 7 day) was 121 mg/dL, the RALB ([…], time 7 day) was 3.8 g/dL and the TBIL ([…], time 7 day) was 0.8 mg/dL. For the same compound, the TC ([…], time 7 day) was 63.6 mg/dL, the TG ([…], time 7 day) was 55.2 mg/dL and the TP ([…], time 7 day) was 5.7 g/dL. The gamma-GTP ([…], time 7 day) was 1 IU/L, the A/G ([…], time 14 day) was 1.9 and the ALP ([…], time 14 day) was 903.6 IU/L. For the same compound, the ALT ([…], time 14 day) was 36.6 IU/L, the AST ([…], time 14 day) was 60.8 IU/L and the BUN ([…], time 14 day) was 20.4 mg/dL. For the same compound, the CRE ([…], time 14 day) was 0.5 mg/dL, the Ca ([…], time 14 day) was 10.3 mg/dL and the Cl ([…], time 14 day) was 105.2 meq/L. For the same compound, the DBIL ([…], time 14 day) was 0.024 mg/dL, the GLC ([…], time 14 day) was 185.6 mg/dL and the IP ([…], time 14 day) was 5.3 mg/dL. For the same compound, the K ([…], time 14 day) was 4.2 meq/L, the LDH ([…], time 14 day) was 105.6 IU/L and the Na ([…], time 14 day) was 140.8 meq/L. For the same compound, the PL ([…], time 14 day) was 130.2 mg/dL, the RALB ([…], time 14 day) was 3.9 g/dL and the TBIL ([…], time 14 day) was 0.7 mg/dL. For the same compound, the TC ([…], time 14 day) was 62.4 mg/dL, the TG ([…], time 14 day) was 79.4 mg/dL and the TP ([…], time 14 day) was 6.1 g/dL. The gamma-GTP ([…], time 14 day) was 1.4 IU/L, the A/G ([…], time 28 day) was 1.6 and the ALP ([…], time 28 day) was 768 IU/L. The ALT ([…], time 28 day) was 34 IU/L, the AST ([…], time 28 day) was 57 IU/L and the BUN ([…], time 28 day) was 20.2 mg/dL. The CRE ([…], time 28 day) was 0.6 mg/dL, the Ca ([…], time 28 day) was 9.9 mg/dL and the Cl ([…], time 28 day) was 103 meq/L. It also gave a DBIL ([…], time 28 day) of 0.0525 mg/dL, a GLC ([…], time 28 day) of 187 mg/dL and an IP ([…], time 28 day) of 5 mg/dL. The K ([…], time 28 day) was 4 meq/L, the LDH ([…], time 28 day) was 72 IU/L and the Na ([…], time 28 day) was 140 meq/L. For the same compound, the PL ([…], time 28 day) was 117 mg/dL, the RALB ([…], time 28 day) was 3.7 g/dL and the TBIL ([…], time 28 day) was 0.9 mg/dL. The TC ([…], time 28 day) was 54.8 mg/dL, the TG ([…], time 28 day) was 57.8 mg/dL and the TP ([…], time 28 day) was 6.2 g/dL. It also gave a gamma-GTP ([…], time 28 day) of 1.5 IU/L.

Reference: ChEMBL document CHEMBL3885861, “Open TG-GATES”
